Literature values in patent US6426407B1, “Residues for binding third strands to complementary nucleic acid duplexes of any base pair sequence” (Codon Pharm., priority 1995, dated 2002).

Key:
[1] = tested on: center strand purine G; also: key: a '+' means the bases are complementary or correspondent; a '−' means they are not complementary or not correspondent
[2] = tested on: homopolymer GC duplexes, homopolymer AT duplexes, and mixed base-pair duplexes with alternating AG in the center strand
[3] = tested on: center strand purine A; also: key: a '+' means the bases are complementary or correspondent; a '−' means they are not complementary or not correspondent

| SMILES | third strand base complementary to center strand purine [1] | triplex formation [2] | third strand base complementary to center strand purine [3] |
| --- | --- | --- | --- |
| OC[C@H]1O[C@@H](n2cnc3c(O)ncnc32)[C@H](O)[C@@H]1O [I, inosine] | + | forms triplexes | + |
| Nc1nc2nc[nH]c2c(=O)[nH]1 [G, guanine] | + |  | − |
| Nc1cc[nH]c(=O)n1 [C, cytosine] | + |  | − |
| Nc1ncnc2nc[nH]c12 [A, adenine] | − |  | + |
